Several values for one entry are separate records, joined by “and”; a condition that tells them apart may be missing. Equal entries are not always repeated.
Legend:
[1] = target: T1, human α2β2γ1 complex, CBS1 mutant (L129D/V130D) (Homo sapiens, UniProt P54619+P54646, L129D/V130D); experiment: Allosteric activation of CBS1 mutant human α2β2γ1 AMPK complex; type: biochemical
T1 construct: made in house; host or cells: Escherichia coli
From the text: To study allosteric activation with a more well-defined AMPK complex, and to study the effects of mutations in individual adenine nucleotide-binding sites on the γ subunit, we expressed a human α2β2γ1 complex in Escherichia coli and purified it utilizing the polyhistidine tag at the N-terminus of the α2 subunit. […] However, it had not been co-expressed with an N-myristoyl transferase so would not have been N-myristoylated on the β2 subunit. The complex was expressed not only with the WT γ1 sequence but also with mutations affecting hydrophobic residues previously shown to be involved in binding of the adenine moieties of nucleotides at CBS1 (L129D/V130D), CBS3 (V276G/L277G) and CBS4 (I312G). All four complexes co-purified as heterotrimeric 1:1:1 complexes as expected, and were phosphorylated and activated equally well either by CaMKK2 or the LKB1: STRADα:MO25α complex (Supplementary Figure S2). For the studies described below we phosphorylated Thr172 using a GST-tagged CaMKK2 and repurified AMPK using size exclusion chromatography and a glutathione-Sepharose column, which remove CaMKK2.
Figure 4. Allosteric activation of WT and mutant human α2β2γ1 AMPK complex by AMP and ADP at three different concentrations of ATP. The α2β2γ1 complex was phosphorylated on Thr172 prior to assay using CaMKK2. The γ1 subunit was either (A/E): WT; (B/F): a CBS1 mutant (L129D/V130D); (C/G): a CBS3 mutant (V276G/L277G); (D/H): a CBS4 mutant (I312G). Results are means of duplicate assays ± SD; error bars are not shown if they were smaller than the symbols used for mean values. Assays and curve fitting were as in Figure 1 at either 0.2 mM (left panels) or 5 mM (right panels) ATP. Best-fit values for all parameters used to generate the curves are listed in Supplementary Table S1.
Sources of antibodies were as described: pThr172 (AMPK-α: Cell Signaling Technologies, Danvers, MA, U.S.A., Cat# 2535), AMPK-α2 [22]. Rat liver AMPK was purified as described previously. Plasmid encoding human (His)6-tagged AMPK (α2β2γ1, bacterially expressed) generated as in [23], was a gift from AstraZeneca, Cambridge, U.K. The L129D/V130D (CBS1), V276G/L277G (CBS3) and I312G (CBS4) mutations in the α2β2γ1 complex were generated using the Quikchange II site-directed mutagenesis kit (Agilent Technologies) and confirmed by DNA sequencing. Human GST-tagged α2 kinase domain (1–310), LKB1:STRAD-α:MO25-α complexes, GST-tagged CaMKK2 [26], and PPM1A (PP2Cα) were produced as described. Bacterially expressed heterotrimers were activated by phosphorylation of Thr172 by GST-tagged CaMKK2 in the presence of ATP, and CaMKK2 was subsequently removed by passage through glutathione-Sepharose. Human GST-tagged α2 kinase domain was activated in a similar manner except that human (His)6-tagged LKB1:STRAD-α:MO25-α complex was used and removed after activation via passage through a His-Trap column. Recombinant human 5′-nucleotidase, CD73, Cat # 5795-EN-01, was from R&D systems (Minneapolis, MN, U.S.A.).
AMPK assays measured the transfer of radioactivity from [γ-^33P]ATP to a peptide substrate, which was separated from unreacted ATP by binding to P81 paper. This assay was described previously except that we used [γ-^33P] rather than [γ-^32P]ATP. In some assays (specified in Figure legends) the concentration of ATP was increased from 0.2 to 1 or 5 mM ATP, with MgCl2 concentrations maintained at a constant 4.8 mM excess above the concentration of ATP [19]. Where allosteric activation by AMP or ADP was being studied, we used the SAMS peptide as substrate. For all other assays the AMARA peptide was used.

[2] = target: T1, human α2β2γ1 complex, CBS1 mutant (L129D/V130D); experiment: AMPK activation and Thr172 phosphorylation by the LKB1 complex, CBS1 mutant; type: biochemical; settings: 300 µM nucleotide, 200 µM ATP
Description: The relative roles of the three CBS sites in the other two mechanisms of activation of AMPK by AMP or ADP, i.e. promotion of Thr172 phosphorylation by LKB1, and protection against Thr172 dephosphorylation by protein phosphatases, have not been examined previously. As expected, incubation of the α2β2γ1 AMPK complex with a fixed, limiting amount of purified LKB1:STRADα:MO25α complex in the presence of 200 µM Mg.ATP^2− caused a large degree of activation (Figure 5A) and phosphorylation (Figure 5B) of AMPK (unphosphorylated α2β2γ1 complex), which were stimulated more than 2-fold by 300 µM AMP and 1.6-fold by 300 µM ADP.
Figure 5. Effects of AMP or ADP on AMPK activation and Thr172 phosphorylation by the LKB1:STRADα:MO25α complex. Unphosphorylated human α2β2γ1 complexes (WT, or with L129D/V130D, V276G/L277G or I312G mutations affecting CBS1, CBS3 or CBS4 respectively) were incubated with ATP and a fixed concentration of the LKB1:STRADα:MO25α complex in the presence or absence of AMP or ADP (both 300 µM), as described in the Materials and methods section. After the incubation aliquots were withdrawn for (A) AMPK assay or (B) Western blots. […] For (B), due to a limit on the number of lanes that could be run on one gel, single replicates from the triplicate assays were analysed. […]

T1 sequence (P54619 whole entry L129D/V130D): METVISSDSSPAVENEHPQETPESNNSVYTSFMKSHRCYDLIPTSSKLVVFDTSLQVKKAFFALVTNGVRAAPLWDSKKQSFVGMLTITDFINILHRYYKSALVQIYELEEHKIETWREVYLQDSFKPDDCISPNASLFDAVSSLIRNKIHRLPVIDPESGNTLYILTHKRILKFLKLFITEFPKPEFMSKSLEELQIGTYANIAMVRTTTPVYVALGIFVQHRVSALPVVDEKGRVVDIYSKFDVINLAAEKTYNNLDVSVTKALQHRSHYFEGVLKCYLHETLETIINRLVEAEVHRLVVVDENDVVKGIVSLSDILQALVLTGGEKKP
T1 sequence (P54646 whole entry): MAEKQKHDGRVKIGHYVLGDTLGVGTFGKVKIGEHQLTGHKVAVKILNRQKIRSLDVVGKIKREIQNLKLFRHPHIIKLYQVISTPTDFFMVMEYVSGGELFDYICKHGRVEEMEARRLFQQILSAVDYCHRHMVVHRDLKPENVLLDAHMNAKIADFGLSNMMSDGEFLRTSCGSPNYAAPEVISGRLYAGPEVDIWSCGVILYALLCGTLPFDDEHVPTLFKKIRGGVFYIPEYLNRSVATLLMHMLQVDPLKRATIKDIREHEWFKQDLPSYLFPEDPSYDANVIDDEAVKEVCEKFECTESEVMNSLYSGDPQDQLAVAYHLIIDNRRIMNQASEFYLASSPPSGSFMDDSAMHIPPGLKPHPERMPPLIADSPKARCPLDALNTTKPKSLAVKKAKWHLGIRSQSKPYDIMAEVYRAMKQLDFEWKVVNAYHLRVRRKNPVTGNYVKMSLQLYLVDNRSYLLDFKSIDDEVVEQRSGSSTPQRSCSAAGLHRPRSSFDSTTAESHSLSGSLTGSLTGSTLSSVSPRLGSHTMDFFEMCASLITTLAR
T1 sequence (O43741 whole entry partner): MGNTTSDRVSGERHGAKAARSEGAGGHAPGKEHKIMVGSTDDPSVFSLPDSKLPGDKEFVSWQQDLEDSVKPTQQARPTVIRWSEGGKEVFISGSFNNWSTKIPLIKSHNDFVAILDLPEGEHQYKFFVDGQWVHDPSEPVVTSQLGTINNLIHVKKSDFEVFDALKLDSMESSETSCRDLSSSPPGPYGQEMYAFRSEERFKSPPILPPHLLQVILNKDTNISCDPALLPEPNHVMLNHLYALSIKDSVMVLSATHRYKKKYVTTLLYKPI

| SMILES | Activation (maximal) ([1]; 0.2 mM ATP) | IC50 ([1]; 0.2 mM ATP) [µM] | Activation (maximal) ([1]; 5.0 mM ATP) | effect of nucleotide on activation/phosphorylation by LKB1 in the mutant [2] | EC50 ([1]; 0.2 mM ATP) [µM] | IC50/EC50 ([1]; 0.2 mM ATP) | EC50 ([1]; 5.0 mM ATP) [µM] | IC50 ([1]; 5.0 mM ATP) [µM] | IC50/EC50 ([1]; 5.0 mM ATP) |
| --- | --- | --- | --- | --- | --- | --- | --- | --- | --- |
| Nc1ncnc2c1ncn2[C@@H]1O[C@H](COP(=O)(O)OP(=O)(O)O)[C@@H](O)[C@H]1O [ADP] | did not cause allosteric activation and none | 1000 | abolished allosteric activation and essentially abolished allosteric activation and none | unaffected |  |  |  |  |  |
| Nc1ncnc2c1ncn2[C@@H]1O[C@H](COP(=O)(O)O)[C@@H](O)[C@H]1O [AMP] | 2.4 (2.3-2.4) fold | 3400 | 2.4 fold and 2.3 fold | unaffected | 1.6 | 2100 | 19 | 52000 | 2700 |
